The results in this text go back to article PMC8942850, “Boron clusters as broadband membrane carriers” (Nature, 2022).

One test has as its system HeLa cells. The test can be described thus: MTT viability with MMAF in absence or presence of B12Br12^2−. The test is classed as cell-based. The conditions noted are these: for mean_viability: cluster 0, mean of three technical replicates; for IC50: MMAF. As for the experimental part:
The incubation mixtures were replaced with DMEM + 10% FBS + 0.5 mg ml^–1 MTT. For the viability assays in the presence of B12Br12^2− or R8, HeLa, GT1-7, ARPE-19 and A549 cells were seeded the day before in 96-well plates at 6,000 cells per well. Cells were incubated with B12Br12^2− or R8 dissolved in HKR buffer for 3 h and, thereafter, incubated for 24 h with complete medium before incubating with complete medium and 0.5 mg ml^−1 MTT. For viability studies in the presence of MMAF, HeLa cells were incubated with MMAF and B12Br12^2− diluted in DMEM (without serum or antibiotics) for 3 h. Cells were washed with 0.1 mg ml^−1 heparin and further incubated for 21 h in complete medium and 2 h in complete medium containing 0.5 mg ml^−1 MTT. For all types of assays, after 2 h of incubation, the medium was carefully removed, and formazan crystals dissolved by addition of DMSO. The absorbance at 570 nm was measured with a plate reader (Tecan Infinite F200Pro) and the data normalized to the value of untreated cells (100% viability). Data were analysed with R (v. 4.0.3)[54].
Solid points indicate mean ± s.d. of three technical replicates. […] Cross-bars indicate mean ± s.d. of three independent experiments (two with technical triplicates, one with technical duplicates); values obtained in each experiment are represented by different shapes. c, Viability […] Solid points indicate mean ± s.d. of three technical replicates. d, Corresponding IC50 values of MMAF. Cross-bars indicate mean ± s.d. of four independent experiments, each with technical triplicates; each experiment is represented by a different shape. e, E. coli Top10 viability in the presence of different concentrations of kanamycin A monosulphate (0–3.5 μg/mL) and B12Br12^2− (0–1,000 μM) in LB broth at 37 °C; data are mean ± s.d. of triplicate measurements. Source data

Test [1] in a line: HPTS/DPX transport assay in zwitterionic EYPC vesicles. The class given is in vitro ADME. The following applies: for Et transport efficiency: Et = Ymax × (pEC50/ft), ft = 19.8 so that WR7 equals 10.0, B12Br12^2− (40 μM) carrier, 5% error (SD) unless stated; for Ymax (%) maximal activity, transport of cargo / EC50: cargo concentration varied, B12Br12^2− (40 μM) as common carrier, EYPC⊃HPTS/DPX vesicles, pH 7.4, Hill analysis, 10% error (SD) unless stated, n.t. = no detectable transport; for Ymax (%) maximal activity, transport of cargo: 13 µM lipid, 10 mM Tris, 107 mM NaCl, HPTS fluorescence; for EC50: read-out: EC50 (μM) effective cargo concentration to reach 50% of Ymax. Details: key to Et: Et = Ymax × (pEC50/ft); pEC50 = −log EC50. As for the experimental part:
The well-established HPTS/DPX assay, which uses 8-hydroxypyrene-1,3,6-trisulfonate (HPTS) and p-xylene-bis-pyridinium (DPX), was implemented to monitor peptide-transport activation (Fig. 2a). […] A surfactant (Triton X-100) was added at the end of the experiment (t = 600 s) to release all vesicle content and normalize the fluorescence intensity data.
Fig. 2 Carrier activity obtained from the HPTS/DPX assay. a, Schematic representation of the transport of otherwise impermeable analytes facilitated by superchaotropic cluster anions with encapsulated HPTS/DPX probe/quencher pair used for signalling. […] Concentrations of carrier and cargo, when fixed, were 40 and 20 µM, respectively, unless explicitly stated. Source data
A thin lipid film was prepared by evaporating a lipid solution with a stream of nitrogen and then dried in vacuo overnight.
Fluorescence intensities were normalized to fractional emission as I(t) = (It − I0)/(I∞ − I0), where I0 = It before cluster addition and I∞ = It after lysis.
In the activator measurements, in which different activators were tested with the same cargo, the activator efficiency (Ea) is determined from their ability to activate the transport of an impermeable cargo molecule and is characterized by Ymax, its maximal activity, and EC50, the effective activator concentration. A potent activator reaches high Ymax at low EC50. To reflect both factors, the activator efficiency is defined as Ea = Ymax × (pEC50/fa), where pEC50 is the negative logarithm of EC50.
In the transport measurements, in which different types of cargo were tested with the same activator, the transport efficiency (Et) reports on the sensitivity of the cargo for being transported and is described by Ymax, the maximal activity, and EC50, the effective cargo concentration. An easily accessible cargo reaches high Ymax at low EC50. The transport efficiency is defined as a composition of both parameters according to Et = Ymax × (pEC50/ft), where pEC50 is the negative logarithm of EC50.
Extended Data Fig. 3 Transport activity. a, Transport activity, Y, in EYPC⊃HPTS/DPX vesicles as a function of cluster concentration at constant cargo concentration (WR7, 20 µM). b, Transport activity, Y, for B12Br12^2− (40 µM) in EYPC⊃HPTS/DPX vesicles as a function of the concentration of different cargo types; red lines correspond to the resulting fit with the Hill equation. Source data

Where two headings read alike, the source gives them in different places. Residues, ends and D or L forms follow the SMILES beside them.

On to `CC[C@H](C)[C@@H]([C@@H](CC(=O)N1CCC[C@H]1[C@H](OC)[C@@H](C)C(=O)N[C@@H](Cc1ccccc1)C(=O)O)OC)N(C)C(=O)[C@@H](NC(=O)[C@@H](NC)C(C)C)C(C)C` [MMAF, monomethyl auristatin F] (HELM PEPTIDE1{[meV].V.[CC[C@H](C)[C@@H]([C@@H](CC(=O)[*:2])OC)N(C)[*:1]].[CO[C@H]([C@@H](C)C(=O)[*:2])[C@@H]1CCCN1[*:1]].F}$$$$V2.0), for which the mean_viability with HeLa cells (MMAF 39.0625 nM) turned out to be 103.936; with HeLa cells (MMAF 78.125 nM) it was 83.7598. The percent_viability in the test on HeLa cells (MMAF 39.0625 nM, cluster 0, technical replicate 1) is reported as 103.03; in the test with HeLa cells (MMAF 39.0625 nM, cluster 0, technical replicate 2) it was 107.013; with HeLa cells (MMAF 39.0625 nM, cluster 0, technical replicate 3), 101.765; in the test with HeLa cells (MMAF 78.125 nM, cluster 0, technical replicate 1), 94.8234. Moreover, the IC50 with HeLa cells (cluster 0, 3 h in DMEM + 21 h medium, experiment_2, read-out: IC50) worked out at 1210 nM; with HeLa cells (cluster 0, 3 h in DMEM + 21 h medium, experiment_3, read-out: IC50), 1290 nM; in the test with HeLa cells (cluster 0, 3 h in DMEM + 21 h medium, experiment_4, read-out: IC50), 1410 nM; in the test with HeLa cells (cluster 0, 3 h in DMEM + 21 h medium, mean of four independent experiments, read-out: mean_IC50), 1210 nM; in the test on HeLa cells (cluster 5 µM as printed, 3 h in DMEM + 21 h medium, experiment_1, read-out: IC50), 512 nM; with HeLa cells (cluster 5 µM as printed, 3 h in DMEM + 21 h medium, experiment_2, read-out: IC50), 709 nM. Also, the IC50 came to 905 nM in the test with HeLa cells (cluster 5 µM as printed, 3 h in DMEM + 21 h medium, experiment_3, read-out: IC50); 870 nM with HeLa cells (cluster 5 µM as printed, 3 h in DMEM + 21 h medium, experiment_4, read-out: IC50); 467 nM in the test with HeLa cells (cluster 10 µM as printed, 3 h in DMEM + 21 h medium, experiment_1, read-out: IC50); 568 nM in the test on HeLa cells (cluster 10 µM as printed, 3 h in DMEM + 21 h medium, experiment_2, read-out: IC50); 660 nM in the test with HeLa cells (cluster 10 µM as printed, 3 h in DMEM + 21 h medium, experiment_3, read-out: IC50); 583 nM in the test on HeLa cells (cluster 10 µM as printed, 3 h in DMEM + 21 h medium, experiment_4, read-out: IC50). The IC50 in the test on HeLa cells (cluster (B12Br12^2−) 5 mM as printed, 3 h in DMEM + 21 h medium, mean of four independent experiments, read-out: mean_IC50) came to 749 nM; in the test with HeLa cells (cluster (B12Br12^2−) 10 mM as printed, 3 h in DMEM + 21 h medium, mean of four independent experiments, read-out: mean_IC50) it was 569 nM.

Regarding `CC1(C)S[C@@H]2[C@H](NC(=O)[C@H](N)c3ccccc3)C(=O)N2[C@H]1C(=O)O` [Ampicillin, ampicillin, reference compound], in test [1], the Et amounted to 4.5; the Et transport efficiency worked out at 4.5; the “Ymax (%) maximal activity, transport of cargo” value (from here on “Ymax (%) maximal activity”) worked out at 74%; the EC50 was 63 µM.

For `N[C@@H](Cc1ccccc1)C(=O)O` [Phenylalanine], in test [1], the Et transport efficiency amounted to 0.5 ± 0.2; the “Ymax (%) maximal activity” value amounted to 10 ± 4%; the EC50 turned out to be 109 µM. In addition, the Et in test [1] (Fig.2 d, per analyte (cargo)) was 0.5.

Regarding `CC(=O)O[C@H]1C[C@@H]2CC[C@@H]3[C@H](CC[C@@]4(C)[C@H]3C[C@H]([N+]3(C)CCCCC3)[C@@H]4OC(C)=O)[C@@]2(C)C[C@@H]1N1CCCCC1` [Vecuronium, reference compound], in test [1], the Et was determined as 3.5; the Et transport efficiency came to 3.5; the “Ymax (%) maximal activity” value was determined as 64%; the EC50 was found to be 50.6 µM.

On to `CNC(=C[N+](=O)[O-])NCCSCc1ccc(CN(C)C)o1` [Ranitidine, reference compound], for which, in test [1], the Et transport efficiency was found to be 3.9; the “Ymax (%) maximal activity” value is on record as 70%; the EC50 was determined as 75.9 µM. The molecule also came in with an Et in test [1] (Fig.2 d, per analyte (cargo)) of 3.9.

For protamine, in test [1], the Et transport efficiency came out at 10.0; the “Ymax (%) maximal activity” value was determined as 76%; the EC50 turned out to be 2.4 µM. In test [1] (Fig.2 d, per analyte (cargo)), the Et amounted to 10.

With phalloidin [reference compound], in test [1], the Et was found to be 2.3; the Et transport efficiency turned out to be 2.3 ± 0.3; the “Ymax (%) maximal activity” value turned out to be 90 ± 10%; the EC50 was 310 ± 70 µM.

Turning to `Cc1ncc(C[n+]2csc(CCO)c2C)c(N)n1` [Vitamin B1], in test [1], the Et transport efficiency is 6.5; the “Ymax (%) maximal activity” value is 73%; the EC50 is 16.6 µM. The Et in test [1] (Fig.2 d, per analyte (cargo)) came to 6.5.

As to `N[C@@H](Cc1c[nH]c2ccccc12)C(=O)O` [Tryptophan], in test [1], the Et came out at 9.6; the Et transport efficiency is recorded as 9.6; the “Ymax (%) maximal activity” value is 72%; the EC50 stood at 2.4 µM.

In the case of `CC(=O)OCC[N+](C)(C)C` [Acetylcholine, acetylcholine], in test [1], the Et transport efficiency is 7.0; the “Ymax (%) maximal activity” value was found to be 75%; the EC50 was 13.8 µM. The molecule further showed an Et in test [1] (Fig.2 d, per analyte (cargo)) of 7.
